This note sets out measurements from patent US6043248A, “Alpha-substituted pyrimidine-thioalkyl and alkylether compounds as inhibitors of viral reverse transcriptase” (priority 1997, dated 2000).

Experiment [1] concerns the target T1, P236L viral reverse transcriptase (Human immunodeficiency virus type 1 group M subtype B, UniProt P04585, P823L).
T1 construct: P236L viral reverse transcriptase is obtained by PNAS 90: 4713-4717 (1993); made in house
In words: inhibition of viral reverse transcriptase (P236L), cell free assay. Type of experiment: biochemical. The note with it: IC50 (Table I, P236L), 30 minutes at 37° C. The essentials:
(§1)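 E. coli-expressed wild-type or P236L RT extracts incubated with inhibitor 30 min at 37 °C in Tris pH 8.3 with MgCl₂, NaCl, DTT, NP-40, 10 μM [35S]-dNTP, poly rC/rG template and oligo dG/dT primer. Incorporated label counted on DE81 paper; reported as % inhibition and/or IC50.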

For experiment [2], the target named is T2, viral reverse transcriptase (Wild Type) (Human immunodeficiency virus type 1 group M subtype B, UniProt P04585).
T2 construct: Viral reverse transcriptase (Wild Type) is found in extracts from bacterial clones; made in house; host or cells: Escherichia coli
In words: inhibition of viral reverse transcriptase (Wild Type), cell free assay. The note with it: for IC50: read-out: IC50 (Table II, Wild Type). Type of experiment: biochemical. The essentials: as §1

Structures are written as SMILES. Where “and” joins values, the source holds several entries; their conditions need not be identical. Identical values can stand only once. Counter-ions that a name gives are not always drawn.

What is called IC50 is the concentration at which inhibition is half-maximal. In the case of `Cc1cc2cc(C(C)Sc3nc(N)cc(C(F)(F)F)n3)nc(Cl)c2o1` (stereo not drawn) [Example 241, 4-Amino-6-trifluoromethyl-2-(1-(7-chloro-2-methylfuro[2,3c]pyridine-5-yl)ethyl)thio-pyrimidine], the IC50 in experiment [1] is 334 nM; in experiment [2] (30 minutes at 37° C.), 82 nM.

For the compound `CC(C)COc1ccc(C(C)Sc2nc(N)cc(Cl)n2)nc1Cl` (stereo not drawn) [Example 307, 4-amino-6-chloro-2-(((5-isobutoxy-6-chloro)-2-pyridyl)-ethyl)thio-pyrimidine], the IC50 came to 1000 nM in experiment [1] and 5000 nM in experiment [2] (30 minutes at 37° C.).

On to `CC(Sc1nc(N)cc(Cl)n1)c1cc(N(C)C)ccn1` (stereo not drawn) [Example 259], for which the IC50 was 30 nM in experiment [1] and 87 nM in experiment [2] (30 minutes at 37° C.).

Consider `C[C@H](Sc1nc(N)cc(Cl)n1)c1cc2ccoc2cn1` [Example 299, (S)-(-)-4-Amino-6-chloro-2-(1-(furo[2,3c]pyridin-5-yl)ethylthio)-pyrimidine], for which the IC50 in experiment [1] was determined as 22 nM; in experiment [2] (30 minutes at 37° C.) it was 20 nM.

Take `CC(Sc1nc(N)cc(Cl)n1)c1cc(C(C)(C)C)ccn1` (stereo not drawn) [Example 210, 4-Amino-6-chloro-2-(1-(4-(1,1-dimethyl)ethyl-2-pyridyl)ethyl)thio-pyrimidine]: the IC50 amounted to 99 nM in experiment [1] and 80 nM in experiment [2] (30 minutes at 37° C.).

Consider `CC(C)c1ccnc(CSc2nc(N)cc(C(F)(F)F)n2)c1` [Example 271, 4-amino-6-trifluoromethyl-2-((4-(1-methylethyl)2-pyridyl)methyl)thio-pyrimidine], for which the IC50 in experiment [1] is 50 nM; in experiment [2] (30 minutes at 37° C.), 31 nM.

For the compound `CCN(CC)C(=O)/C=C/CSc1nc(N)cc(Cl)n1` [Example 194, (E)-N,N-Diethyl-4-[(4-amino-6-chloro-2-pyrimidinyl)thio]-2-butenamide], the IC50 in experiment [1] worked out at 34 nM; in experiment [2] (30 minutes at 37° C.), 49 nM.

Regarding `CC(Sc1nc(N)cc(Cl)n1)c1cc2c(cn1)CCCC2` (stereo not drawn) [Example 233, 4-Amino-6-chloro-2-(1-(3-(5,6,7,8-tetrahydroisoquinolyl))ethyl)thiopyrimidine], the IC50 came out at 68 nM in experiment [1] and 67 nM in experiment [2] (30 minutes at 37° C.).

`CC(C)c1ccnc(C(C)Sc2nc(N)cc(C(F)(F)F)n2)c1` (stereo not drawn) [Example 272, 4-amino-6-trifluoromethyl-2-(1-(4-(1-methylethyl)2-pyridyl)ethyl)thio-pyrimidine]: the IC50 was determined as 160 nM in experiment [1] and 112 nM in experiment [2] (30 minutes at 37° C.).

On to `Cc1ccnc(C(C)Sc2nc(N)cc(Cl)n2)c1` (stereo not drawn) [Example 215, 4-Amino-6-chloro-2-(1-(4-methyl-2-pyridyl)ethyl)thio-pyrimidine hydrochloride], for which the IC50 is 33 nM in experiment [1] and 17 nM in experiment [2] (30 minutes at 37° C.).

The inhibition is the percentage by which the read-out fell short of the control. A higher inhibition goes with strong suppression. In experiment [1], `Clc1nc(SCc2ccc3ccccc3c2)nc2c1CCN2` [Example 281, 4-chloro-2-(naphthylmethyl)thio-5,6-dihydro-7H-pyrrolo[2,3-d]pyrimidine] showed an IC50 of 1000 nM. In experiment [2], this compound registered an inhibition at 50 µM of 56%.

Consider `CC(Sc1nc(N)cc(Cl)n1)c1cc(C#N)ccn1` (stereo not drawn) [Example 214, 4-Amino-6-chloro-2-(1-(4-cyano-2-pyridyl)ethyl)thio-pyrimidine], for which the results for the IC50 in experiment [1] and in experiment [2] (30 minutes at 37° C.) were 178 nM and 487 nM, respectively.

On to `COC(=O)C(Sc1nc(N)cc(Cl)n1)c1cc(C)ccn1` (stereo not drawn) [Example 220, 4-Amino-6-chloro-2-(1-(4-methyl-2-pyridyl)-1-carbomethoxy-methyl)thio-pyrimidine], for which the concentration for half-maximal inhibition (IC50) in experiment [1] was found to be 50000 nM. In experiment [2], this compound displayed an inhibition at 50 µM of 19%.

`C=Cc1cc(C(C)Sc2nc(N)cc(Cl)n2)nc(Cl)c1OC` (stereo not drawn) [Example 244, 4-Amino-6-chloro-2-(1-(6-chloro-5-methoxy-4-vinyl-2-pyridyl)ethyl)thio-pyrimidine]: the values for the IC50 in experiment [1] and in experiment [2] (30 minutes at 37° C.) were 186 nM and 141 nM, respectively.

`CC(Sc1nc(N)cc(C(F)(F)F)n1)c1cc(C(C)(C)C)ccn1` (stereo not drawn) [Example 269, 4-amino-6-trifluoromethyl-2-(1-(4-(1-dimethylethyl)-2-pyridyl)-ethyl)thio-pyrimidine]: the figures for the IC50 in experiment [1] and in experiment [2] (30 minutes at 37° C.) were 200 nM and 441 nM, respectively.

With `CC(Sc1nc(N)cc(Cl)n1)c1cc(C2CCCCC2)ccn1` (stereo not drawn) [Example 257], the IC50 in experiment [1] was found to be 500 nM. The compound further had an inhibition at 10 µM in experiment [2] (@ 10 μM) of 78%.

In the case of `CC(Sc1nc(N)cc(Cl)n1)c1cc2c(cn1)OCC2(C)C` (stereo not drawn) [Example 248, 4-Amino-6-chloro-2-(1-(3,3-dimethyl-2,3-dihydrofuro[2,3c]pyridine-5-yl)ethyl)thio-pyrimidine], the IC50 in experiment [1] is 18 nM; in experiment [2] (30 minutes at 37° C.), 72 nM.

For the compound `CC(Sc1nc(N)cc(Cl)n1)c1cc2c(cn1)OCC2` (stereo not drawn) [Example 247, 4-Amino-6-chloro-2-(1-(2,3-dihydrofuro[2,3c]pyridine-5-yl)ethyl)thio-pyrimidine], the IC50 in experiment [1] was 61 nM; in experiment [2] (30 minutes at 37° C.), 72 nM.

In turn, `CCNC(=O)/C=C/CSc1nc(N)cc(Cl)n1` [Example 196, (E)-N-ethyl-4-[(4-amino-6-chloro-2-pyrimidinyl)thio]-2-butenamide] returned an IC50 in experiment [1] of 10000 nM. The same compound registered an inhibition at 50 µM in experiment [2] of 71%.

For `Cc1coc2cnc([C@@H](C)Sc3nc(N)cc(C(F)(F)F)n3)cc12` [Example 298, (R)-(+)-4-Amino-6-trifluoromethyl-2-(1-(3-methylfuro[2,3c]pyridin-5-yl)ethylthio)-pyrimidine], the values for the IC50 in experiment [1] and in experiment [2] (30 minutes at 37° C.) were 79 nM and 113 nM, respectively.

`N#Cc1cc(Cl)nc(SCc2ccc3ccccc3c2)n1` [Example 276, 6-chloro-2-(2-naphthylmethyl)thio-4-pyrimidine carbonitrile] gave an IC50 in experiment [1] of 50000 nM. In experiment [2] (30 minutes at 37° C.), the “IC50 (Table II, Wild Type)” value is “INACTIVE”.

As for `CC(Sc1nc(N)cc(Cl)n1)c1ccccn1` (stereo not drawn) [Example 211, 4-Amino-6-chloro-2-(1-(2-pyridyl)ethyl)thio-pyrimidine], the values for the IC50 in experiment [1] and in experiment [2] (30 minutes at 37° C.) were 46 nM and 190 nM, respectively.

On to `Cc1coc2cnc(C(C)Sc3nc(N)cc(C(F)(F)F)n3)cc12` (stereo not drawn) [Example 296, 4-Amino-6-trifluoromethyl-2-(1-(3-methyl-furo[2,3c]pyridin-5-yl)ethylthio)-pyrimidine], for which the IC50 in experiment [1] was 79 nM and 83 nM and 75 nM; in experiment [2] (30 minutes at 37° C.) it was 54 nM and 111 nM.

As for `CC(Sc1nc(N)cc(C(F)(F)F)n1)c1cc2c(cn1)CCCC2` (stereo not drawn) [Example 234, 4-Amino-6-trifluoromethyl-2-(1-(3-(5,6,7,8-tetrahydro-isoquinolyl))ethyl)thio-pyrimidine], the figures for the IC50 in experiment [1] and in experiment [2] (30 minutes at 37° C.) were 170 nM and 131 nM, respectively.

`Nc1cc(Cl)nc(SC/C=C/C(=O)N2CCOCC2)n1` [Example 198, (E)-4-[4-[(4-amino-6-chloro-2-pyrimidinyl)thio]-1-oxo-2-butenyl]morpholine] gave an IC50 in experiment [1] of 10000 nM. In experiment [2], this compound showed an inhibition at 50 µM of 69%.

Consider `CC(Sc1nc(N)cc(C(F)(F)F)n1)c1cc2ccoc2cn1` (stereo not drawn) [Example 239, 4-Amino-6-trifluoromethyl-2-(1-(furo[2,3-c]pyridin-5-yl)ethyl)thio-pyrimidine], for which the IC50 in experiment [1] came to 88 nM; in experiment [2] (30 minutes at 37° C.), 50 nM.

`CC(Sc1nc(N)cc(Cl)n1)c1cc2ccoc2c(Cl)n1` (stereo not drawn) [Example 237, 4-Amino-6-chloro-2-(1-(7-chlorofuro[2,3c]pyridine-5-yl)ethyl)thio-pyrimidine]: the IC50 in experiment [1] was determined as 26 nM; in experiment [2] (30 minutes at 37° C.), 15 nM.

As to `CC(Sc1nc(N)cc(Cl)n1)c1cc2c(C(F)(F)F)coc2cn1` (stereo not drawn) [Example 294], the IC50 is 104 nM in experiment [1] and 233 nM in experiment [2] (30 minutes at 37° C.).

With `Cc1cc2cc(C(C)Sc3nc(N)cc(Cl)n3)ncc2o1` (stereo not drawn) [Example 242, 4-Amino-6-chloro-2-(1-(2-methylfuro[2,3c]pyridine-5-yl)ethyl)thio-pyrimidine], the IC50 in experiment [1] came to 118 nM; in experiment [2] (30 minutes at 37° C.), 282 nM.

For the compound `CC(C)c1ccnc(C(C)Sc2nc(N)cc(Cl)n2)c1` (stereo not drawn) [Example 223, 4-Amino-6-chloro-2-(1-(4-(1-methylethyl)-2-pyridyl)ethyl)thio-pyrimidine], the IC50 in experiment [1] was 68 nM; in experiment [2] (30 minutes at 37° C.), 60 nM.

In the case of `Cc1coc2cnc([C@@H](C)Sc3nc(N)cc(Cl)n3)cc12` [Example 289, (R)-(+)-4-Amino-6-chloro-2-(1-(3-methylfuro[2,3c]pyridine-5-yl)ethyl)thio-pyrimidine], the IC50 was 14 nM in experiment [1] and 29 nM in experiment [2] (30 minutes at 37° C.).

Take `CC(Sc1nc(N)cc(Cl)n1)c1cc2c(C(F)(F)F)coc2c(Cl)n1` (stereo not drawn) [Example 293]: the IC50 in experiment [1] was 190 nM; in experiment [2] (30 minutes at 37° C.), 345 nM.

Take `Nc1cc(C(F)(F)F)nc(SCc2ccc3ccccc3c2)n1` [Example 270, 4-amino-6-trifluoromethyl-2-(2-naphthylmethyl)thio-pyrimidine]: the IC50 in experiment [1] was determined as 290 nM; in experiment [2] (30 minutes at 37° C.), 434 nM.
